Results as given in US8222296B2, “Conjugates comprising a GABA- or glycine compound, pharmaceutical compositions and combinations thereof and their use in treating CNS disorders” (Ramot at Tel-Aviv University Ltd., priority 2006, dated 2012).
Counter-ions that a name gives are not always drawn.

What was measured:
[1] = Stability of BIL-1022 in water and methanol; type: physicochemical; details: low pH (3-5), room temperature (20-25° C.)
Method: The stability of BIL-1022 was briefly studied. BIL-1022 is stable in water and methanol at low pH (3-5) at room temperature (20-25° C.).

[2] = Water content (Karl-Fisher titration) after sitting uncapped on the bench overnight; type: physicochemical; details: 0.15% vs. 0.16%
Method: Water content was measured using Karl-fisher titration.

CC(=O)Nc1ccc(OC(=O)CCCN)cc1 [BIL-1022, 4-acetamidophenyl 4-aminobutanoate hydrochloride]
stability in water and methanol [1]: stable | water content of the product upon sitting in vial (uncapped) on the bench overnight [2]: remained substantially unchanged
